For assay [1], the target named is High affinity nerve growth factor receptor (Homo sapiens) (UniProt P04629). Description: Inhibition of TRK-A (unknown origin) assessed as remaining activity at 1 uM using fluorescein-poly GAT as substrate in presence of ATP by TR-FRET assay relative to control. Background: In TR-FRET formats the signal depends on donor and acceptor labels being close together.
Assay [2] addresses T1, Discoidin domain-containing receptor 2 (Homo sapiens) (UniProt Q16832).
T1 sequence (whole entry): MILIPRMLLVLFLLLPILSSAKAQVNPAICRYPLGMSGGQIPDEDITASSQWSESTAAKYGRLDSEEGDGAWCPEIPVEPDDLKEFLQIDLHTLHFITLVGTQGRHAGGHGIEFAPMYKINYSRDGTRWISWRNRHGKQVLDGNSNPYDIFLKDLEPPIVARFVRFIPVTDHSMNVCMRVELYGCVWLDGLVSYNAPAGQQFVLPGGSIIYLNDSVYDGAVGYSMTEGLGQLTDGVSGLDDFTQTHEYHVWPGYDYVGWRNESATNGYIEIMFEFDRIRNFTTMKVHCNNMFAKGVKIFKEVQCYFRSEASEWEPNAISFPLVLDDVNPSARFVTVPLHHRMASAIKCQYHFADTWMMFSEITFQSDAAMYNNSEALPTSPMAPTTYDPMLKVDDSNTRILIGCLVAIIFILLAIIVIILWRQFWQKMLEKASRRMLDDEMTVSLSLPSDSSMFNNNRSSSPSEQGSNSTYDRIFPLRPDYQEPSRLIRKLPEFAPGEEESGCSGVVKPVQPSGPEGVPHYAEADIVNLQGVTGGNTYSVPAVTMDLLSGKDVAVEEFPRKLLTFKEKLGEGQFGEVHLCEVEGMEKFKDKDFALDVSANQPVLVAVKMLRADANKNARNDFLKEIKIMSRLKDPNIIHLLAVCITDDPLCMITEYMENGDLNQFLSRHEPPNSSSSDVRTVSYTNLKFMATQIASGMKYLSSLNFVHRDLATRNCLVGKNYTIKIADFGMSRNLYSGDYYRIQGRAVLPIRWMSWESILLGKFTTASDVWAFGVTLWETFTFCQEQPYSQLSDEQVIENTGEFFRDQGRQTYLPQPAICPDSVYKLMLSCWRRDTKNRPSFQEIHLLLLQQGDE
Description: Inhibition of DDR2 (unknown origin) assessed as remaining activity at 1 uM using fluorescein-poly GAT as substrate in presence of ATP by TR-FRET assay relative to control.

The target of assay [3] is NT-3 growth factor receptor (Homo sapiens) (UniProt Q16288). Put plainly: Inhibition of TRK-C (unknown origin) assessed as remaining activity at 1 uM using fluorescein-poly GAT as substrate in presence of ATP by TR-FRET assay relative to control.
For assay [4], the target named is BDNF/NT-3 growth factors receptor (Homo sapiens) (UniProt Q16620). Put plainly: Inhibition of TRK-B (unknown origin) assessed as remaining activity at 1 uM using fluorescein-poly GAT as substrate in presence of ATP by TR-FRET assay relative to control.

SMILES strings stand for the structures.

Chain of NT-3 growth factor receptor (Homo sapiens) (Q16288 32-839 limits assumed): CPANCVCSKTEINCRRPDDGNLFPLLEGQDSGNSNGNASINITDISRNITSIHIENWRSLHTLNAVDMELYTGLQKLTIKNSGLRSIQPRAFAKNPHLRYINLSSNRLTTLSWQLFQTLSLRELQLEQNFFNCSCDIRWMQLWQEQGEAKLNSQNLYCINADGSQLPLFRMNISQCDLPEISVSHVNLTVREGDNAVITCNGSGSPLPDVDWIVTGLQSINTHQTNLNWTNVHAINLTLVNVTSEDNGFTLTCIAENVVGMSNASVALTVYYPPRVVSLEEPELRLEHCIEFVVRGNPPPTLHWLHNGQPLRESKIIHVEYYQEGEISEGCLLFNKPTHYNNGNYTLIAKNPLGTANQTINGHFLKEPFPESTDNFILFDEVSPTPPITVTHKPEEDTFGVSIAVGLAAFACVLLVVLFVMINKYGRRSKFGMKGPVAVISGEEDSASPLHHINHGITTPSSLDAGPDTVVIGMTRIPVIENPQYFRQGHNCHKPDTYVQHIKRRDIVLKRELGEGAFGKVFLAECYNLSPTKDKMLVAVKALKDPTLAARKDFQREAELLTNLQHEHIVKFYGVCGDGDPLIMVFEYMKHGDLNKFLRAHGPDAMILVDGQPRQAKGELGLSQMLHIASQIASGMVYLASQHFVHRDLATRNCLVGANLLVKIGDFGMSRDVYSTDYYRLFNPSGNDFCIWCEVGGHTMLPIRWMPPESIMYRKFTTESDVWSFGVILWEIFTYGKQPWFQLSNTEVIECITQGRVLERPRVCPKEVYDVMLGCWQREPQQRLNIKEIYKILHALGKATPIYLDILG
Chain of BDNF/NT-3 growth factors receptor (Homo sapiens) (Q16620 32-822 limits assumed): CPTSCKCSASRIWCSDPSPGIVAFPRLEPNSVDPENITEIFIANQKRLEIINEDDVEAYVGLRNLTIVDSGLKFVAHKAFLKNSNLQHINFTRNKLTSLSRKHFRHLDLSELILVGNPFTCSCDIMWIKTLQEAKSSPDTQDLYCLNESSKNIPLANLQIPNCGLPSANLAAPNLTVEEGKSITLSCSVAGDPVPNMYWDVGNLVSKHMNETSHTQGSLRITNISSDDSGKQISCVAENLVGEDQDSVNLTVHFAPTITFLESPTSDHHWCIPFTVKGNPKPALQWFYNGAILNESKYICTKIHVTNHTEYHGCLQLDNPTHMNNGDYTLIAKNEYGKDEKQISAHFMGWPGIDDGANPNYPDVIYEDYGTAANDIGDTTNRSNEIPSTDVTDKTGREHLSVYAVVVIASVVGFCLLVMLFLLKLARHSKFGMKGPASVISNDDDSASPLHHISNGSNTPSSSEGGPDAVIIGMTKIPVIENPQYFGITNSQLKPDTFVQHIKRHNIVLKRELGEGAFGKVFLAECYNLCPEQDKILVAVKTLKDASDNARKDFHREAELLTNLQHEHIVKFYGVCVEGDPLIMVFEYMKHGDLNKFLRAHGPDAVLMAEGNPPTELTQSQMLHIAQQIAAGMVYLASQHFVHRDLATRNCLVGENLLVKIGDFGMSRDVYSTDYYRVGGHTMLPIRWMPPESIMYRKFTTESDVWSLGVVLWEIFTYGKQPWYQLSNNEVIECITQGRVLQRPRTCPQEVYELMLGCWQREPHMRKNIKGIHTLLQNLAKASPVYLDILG
Chain of High affinity nerve growth factor receptor (Homo sapiens) (P04629 33-796 limits assumed): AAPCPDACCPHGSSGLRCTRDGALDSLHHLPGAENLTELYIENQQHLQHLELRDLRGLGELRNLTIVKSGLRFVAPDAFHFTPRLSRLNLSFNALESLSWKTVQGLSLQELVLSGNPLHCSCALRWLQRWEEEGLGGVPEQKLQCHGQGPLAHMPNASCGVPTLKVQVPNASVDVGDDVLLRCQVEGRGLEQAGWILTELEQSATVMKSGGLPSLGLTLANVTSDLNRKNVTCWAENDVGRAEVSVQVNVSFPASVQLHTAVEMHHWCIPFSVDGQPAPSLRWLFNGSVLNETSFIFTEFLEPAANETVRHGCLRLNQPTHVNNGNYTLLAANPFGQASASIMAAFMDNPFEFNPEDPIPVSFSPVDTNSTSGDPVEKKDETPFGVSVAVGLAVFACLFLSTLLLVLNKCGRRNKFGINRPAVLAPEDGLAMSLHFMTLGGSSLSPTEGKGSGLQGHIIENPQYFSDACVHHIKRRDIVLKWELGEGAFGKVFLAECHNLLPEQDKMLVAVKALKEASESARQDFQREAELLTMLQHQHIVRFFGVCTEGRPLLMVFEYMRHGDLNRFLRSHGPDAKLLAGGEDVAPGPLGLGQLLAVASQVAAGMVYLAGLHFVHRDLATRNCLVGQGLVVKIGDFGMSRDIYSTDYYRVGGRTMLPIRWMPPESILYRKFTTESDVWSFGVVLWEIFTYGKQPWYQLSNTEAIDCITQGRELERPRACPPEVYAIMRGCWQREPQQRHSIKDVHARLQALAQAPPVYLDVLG

For the compound `COc1ccc2c(c1)c(CNC(=O)Nc1ccc(C)cc1)cn2CC(=O)N1CCOCC1`, the Activity was determined as 81.3% in assay [1], 89.6% in assay [2], 87.5% in assay [3] and 84% in assay [4].

For `COc1ccc2c(c1)c(CNC(=O)Nc1ccc(C(F)(F)F)cc1)cn2CC(=O)N1CCOCC1`, the Activity in assay [1] was determined as 71.8%; in assay [2], 82.2%; in assay [3] it was 103%; in assay [4], 79%.

With `COc1ccc(NC(=O)NCc2cn(CC(=O)N3CCOCC3)c3ccc(F)cc23)cc1`, the Activity is 90.8% in assay [1], 79.4% in assay [2], 82.7% in assay [3] and 107% in assay [4].

As to `O=C(NCc1cn(CC(=O)N2CCOCC2)c2ccc(F)cc12)Nc1ccccc1Cl`, the Activity in assay [1] stood at 78%; in assay [2], 54.5%; in assay [3] it was 87.4%; in assay [4], 83.8%.

As for `COc1ccc2c(c1)c(CNC(=O)Nc1ccc(C(F)(F)F)cc1)cn2CC(=O)N1CCCCC1`, the Activity turned out to be 91.6% in assay [1], 73.8% in assay [2], 105% in assay [3] and 74.9% in assay [4].

On to `CN1CCN(C(=O)Cn2cc(CNC(=O)Nc3ccc(C(F)(F)F)cc3)c3cc(F)ccc32)CC1`, for which the Activity in assay [1] came to 81.5%; in assay [2], 74.2%; in assay [3], 93.7%; in assay [4], 105%.

Consider `COc1ccc2c(c1)c(CNC(=O)Nc1ccc(C)cc1)cn2CC(=O)N1CCCC1`, for which the Activity in assay [1] was found to be 75.2%; in assay [2] it was 84.8%; in assay [3], 77.5%; in assay [4], 87.9%.

With `COc1ccc(NC(=O)NCc2cn(CC(=O)N3CCCC3)c3ccc(OC)cc23)cc1`, the Activity was found to be 113% in assay [1], 91.5% in assay [2], 88.1% in assay [3] and 102% in assay [4].

As to `COc1ccc(NC(=O)NCc2cn(CC(=O)N3CCN(C)CC3)c3ccc(F)cc23)cc1`, the Activity was determined as 80% in assay [1], 73.5% in assay [2], 106% in assay [3] and 104% in assay [4].

Consider `CN1CCN(C(=O)Cn2cc(CNC(=O)Nc3ccccc3Cl)c3cc(F)ccc32)CC1`, for which the Activity in assay [1] came to 81.8%; in assay [2] it was 73.5%; in assay [3] it was 90.2%; in assay [4], 89.6%.

As for `O=C(NCc1cn(CC(=O)N2CCCCC2)c2ccc(F)cc12)Nc1ccccc1Cl`, the Activity in assay [1] was 90.3%; in assay [2] it was 48%; in assay [3] it was 84.2%; in assay [4], 75.7%.

Take `COc1ccc2c(c1)c(CNC(=O)Nc1ccc(F)cc1F)cn2CC(=O)N1CCCCC1`: the Activity in assay [1] is 84.7%; in assay [2], 74.8%; in assay [3] it was 68.6%; in assay [4] it was 70.8%.

Regarding `COc1ccc(NC(=O)NCc2cn(CC(=O)N3CCCC3)c3ccc(F)cc23)cc1`, the Activity in assay [1] amounted to 71.6%; in assay [2], 86.3%; in assay [3], 110%; in assay [4] it was 83.8%.

`COc1ccc2c(c1)c(CNC(=O)Nc1ccccc1Cl)cn2CC(=O)N1CCCC1`: the Activity turned out to be 95.7% in assay [1], 67.8% in assay [2], 69.6% in assay [3] and 99.3% in assay [4].

As to `Cc1ccc(NC(=O)NCc2cn(CC(=O)N3CCCC3)c3ccc(F)cc23)cc1`, the Activity worked out at 101% in assay [1], 95.4% in assay [2], 91.2% in assay [3] and 99.5% in assay [4].

`Cc1ccc(NC(=O)NCc2cn(CC(=O)N3CCOCC3)c3ccc(F)cc23)cc1`: the Activity in assay [1] came out at 114%; in assay [2], 72.4%; in assay [3], 111%; in assay [4], 83.8%.

With `COc1ccc2c(c1)c(CNC(=O)Nc1ccccc1Cl)cn2CC(=O)N1CCOCC1`, the Activity in assay [1] worked out at 91.7%; in assay [2], 54.7%; in assay [3], 86%; in assay [4] it was 97.2%.

Turning to `COc1ccc(NC(=O)NCc2cn(CC(=O)N3CCOCC3)c3ccc(OC)cc23)cc1`, the Activity in assay [1] stood at 98.9%; in assay [2], 95.3%; in assay [3] it was 89%; in assay [4] it was 92.5%.

Turning to `O=C(NCc1cn(CC(=O)N2CCCC2)c2ccc(F)cc12)Nc1ccccc1Cl`, the Activity came to 78% in assay [1], 73.8% in assay [2], 68.6% in assay [3] and 81.5% in assay [4].

Consider `COc1ccc2c(c1)c(CNC(=O)Nc1ccc(C(F)(F)F)cc1)cn2CC(=O)N1CCCC1`, for which the Activity in assay [1] is 90.4%; in assay [2], 99.5%; in assay [3] it was 89.7%; in assay [4] it was 72.2%.

`O=C(NCc1cn(CC(=O)N2CCCC2)c2ccc(F)cc12)Nc1ccc(C(F)(F)F)cc1`: the Activity in assay [1] came to 101%; in assay [2] it was 81.1%; in assay [3] it was 94.3%; in assay [4], 101%.

Regarding `COc1ccc(NC(=O)NCc2cn(CC(=O)N3CCCCC3)c3ccc(F)cc23)cc1`, the Activity in assay [1] is 92.7%; in assay [2], 80.6%; in assay [3], 101%; in assay [4], 80.1%.

Take `Cc1ccc(NC(=O)NCc2cn(CC(=O)N3CCCCC3)c3ccc(F)cc23)cc1`: the Activity in assay [1] was 99.7%; in assay [2] it was 92.5%; in assay [3], 99.7%; in assay [4] it was 97%.

`Cc1ccc(NC(=O)NCc2cn(CC(=O)N3CCN(C)CC3)c3ccc(F)cc23)cc1`: the Activity in assay [1] was determined as 91.7%; in assay [2], 78.2%; in assay [3], 104%; in assay [4] it was 90.4%.

`COc1ccc2c(c1)c(CNC(=O)Nc1ccccc1Cl)cn2CC(=O)N1CCCCC1`: the Activity was 74.8% in assay [1], 64.3% in assay [2], 68.9% in assay [3] and 87.4% in assay [4].

Consider `COc1ccc(NC(=O)NCc2cn(CC(=O)N3CCN(C)CC3)c3ccc(OC)cc23)cc1`, for which the Activity was 108% in assay [1], 93.4% in assay [2], 94.5% in assay [3] and 108% in assay [4].

Consider `COc1ccc2c(c1)c(CNC(=O)Nc1ccc(F)cc1F)cn2CC(=O)N1CCN(C)CC1`, for which the Activity turned out to be 93.1% in assay [1], 66.5% in assay [2], 68.8% in assay [3] and 88.9% in assay [4].

As for `COc1ccc(NC(=O)NCc2cn(CC(=O)N3CCCCC3)c3ccc(OC)cc23)cc1`, the Activity in assay [1] is 92.1%; in assay [2] it was 72.4%; in assay [3], 92.7%; in assay [4], 87.4%.

On to `COc1ccc2c(c1)c(CNC(=O)Nc1ccc(F)cc1F)cn2CC(=O)N1CCOCC1`, for which the Activity in assay [1] came out at 77.8%; in assay [2], 74.7%; in assay [3] it was 60.5%; in assay [4] it was 73.1%.

`COc1ccc2c(c1)c(CNC(=O)Nc1ccc(C(F)(F)F)cc1)cn2CC(=O)N1CCN(C)CC1`: the Activity came out at 96% in assay [1], 102% in assay [2], 106% in assay [3] and 104% in assay [4].

Turning to `COc1ccc2c(c1)c(CNC(=O)Nc1ccc(C)cc1)cn2CC(=O)N1CCN(C)CC1`, the Activity turned out to be 98.7% in assay [1], 96.2% in assay [2], 90.9% in assay [3] and 108% in assay [4].

As to `COc1ccc2c(c1)c(CNC(=O)Nc1ccccc1Cl)cn2CC(=O)N1CCN(C)CC1`, the Activity in assay [1] was determined as 94%; in assay [2], 55.9%; in assay [3], 82.9%; in assay [4], 93.4%.

With `O=C(NCc1cn(CC(=O)N2CCOCC2)c2ccc(F)cc12)Nc1ccc(C(F)(F)F)cc1`, the Activity in assay [1] was determined as 77.5%; in assay [2] it was 90.2%; in assay [3] it was 98.3%; in assay [4], 72.2%.

On to `O=C(NCc1cn(CC(=O)N2CCCCC2)c2ccc(F)cc12)Nc1ccc(C(F)(F)F)cc1`, for which the Activity in assay [1] was found to be 87%; in assay [2], 70.1%; in assay [3] it was 105%; in assay [4], 108%.

Consider `COc1ccc2c(c1)c(CNC(=O)Nc1ccc(C)cc1)cn2CC(=O)N1CCCCC1`, for which the Activity in assay [1] is 82.3%; in assay [2], 83.2%; in assay [3], 92.5%; in assay [4] it was 85.7%.

(Values after ChEMBL document CHEMBL5528029, “Design, synthesis, and biological evaluation of novel discoidin domain receptor inhibitors for the treatment of lung adenocarcinoma and pulmonary fibrosis” (Eur J Med Chem, 2024).)
